In patent US20210246115A1 (Bioimics AB, priority 2017, published 2021) one finds IC50 and MIC data, which are given here for 27 compounds.

The test system of test [1] is E. coli RNase P RNA, M1 RNA. The test is described as follows: Inhibition of bacterial RNase P activity, IC50 determination (cleavage of pATSerUG by M1 RNA). It is filed as biochemical. Conditions: NI: No inhibition.
In test [2] the test system is Escherichia coli (ATCC25922). The experiment in a line: MIC, broth microdilution (CLSI), Escherichia coli. To be noted: Escherichia coli, ATCC25922, read-out: E. coli ATCC 25922 MIC, Table XIII. (In general: Dilution methods test growth across graded concentrations, often in twofold steps.)
Test [3] has as its system Staphylococcus aureus (ATCC25923). The test is described as follows: MIC, broth microdilution (CLSI), Staphylococcus aureus ATCC25923. To be noted: Staphylococcus aureus, ATCC25923, read-out: S. aureus ATCC 25923 MIC.
Test [4] has as its system Staphylococcus aureus subsp. aureus (ATCC29213). The experiment in a line: MIC, broth microdilution (CLSI), Staphylococcus aureus ATCC29213. In kind it is cell-based. Conditions: Staphylococcus aureus.
Setting [5] is: ATCC29213, read-out: S. aureus ATCC 29213 MIC, Table XIII.

One may read the IC50 as the concentration needed to halve the response being measured. Low readings indicate greater potency, high ones weaker potency. A word on the MIC: it is the smallest concentration in the dilution series that meets the test's criterion for growth inhibition.

Values after ≈ are worked out from the molar mass of the structure shown. Structures can show the parent of a compound that is named as a salt. Where two headings read alike, the source gives them in different places.

Consider `Cc1cccc(C(CC(=O)N(C)C2CCNCC2)c2cn(CC3CCCCC3)c3ccccc23)c1.Cl` (stereo not shown) [Compound 279, 3-(1-(cyclohexylmethyl)-1H-indol-3-yl)-N-methyl-N-(piperidin-4-yl)-3-(m-tolyl)propanamide hydrochloride salt], for which, in test [1], the IC50 came out at 34 µM. The MIC in test [2] came out at 65 µg/mL; in test [3], 8 µg/mL.
In the same order, the values of `Cc1cccc(C(CC(=O)NCC2CNCCO2)c2cn(CC3CCCCC3)c3ccccc23)c1.Cl` (stereo not shown) [Compound 280, 3-(1-(cyclohexylmethyl)-1H-indol-3-yl)-N-(morpholin-2-ylmethyl)-3-(m-tolyl)propanamide hydrochloride salt] are 103 µM, 131 µg/mL and 16 µg/mL.
In the same order, the values of `Cc1cccc(C(CC(=O)NCC2CNCCO2)c2cn(CC3CCCCC3)c3ccc(Br)cc23)c1.Cl` (stereo not shown) [Compound 281, 3-(5-bromo-1-(cyclohexylmethyl)-1H-indol-3-yl)-N-(morpholin-2-ylmethyl)-3-(m-tolyl)propanamide hydrochloride salt] are 168 µM, above 512 µg/mL and 19 µg/mL.
On to `Cc1cccc(C(CC(=O)NC2CCNCC2)c2cn(CC3CCC(F)(F)CC3)c3ccccc23)c1.Cl` (stereo not shown) [Compound 282, 3-(1-((4,4-difluorocyclohexyl)methyl)-1H-indol-3-yl)-N-(piperidin-4-yl)-3-(m-tolyl)propanamide hydrochloride salt], for which half-maximal inhibition in test [1] (IC50) was put at 71 µM. Moreover, the MIC stood at 136 µg/mL in test [2] and 34 µg/mL in test [3].
In test [1], `Cc1cccc(C(CC(=O)NC2CCNCC2)c2cn(CC3CCOCC3)c3ccccc23)c1.Cl` (stereo not shown) [Compound 284, N-(piperidin-4-yl)-3-(1-((tetrahydro-2H-pyran-4-yl)methyl)-1H-indol-3-yl)-3-(m-tolyl)propanamide hydrochloride salt] yielded an IC50 of 316 µM. Moreover, the MIC in test [2] and in test [3] was above 512 µg/mL throughout.
As to `Cc1cccc(C(CC(=O)NC2CCNCC2)c2cn(CC3CCOCC3)c3ccc(Br)cc23)c1.Cl` (stereo not shown) [Compound 285, 3-(5-bromo-1-((tetrahydro-2H-pyran-4-yl)methyl)-1H-indol-3-yl)-N-(piperidin-4-yl)-3-(m-tolyl) propanamide hydrochloride salt], in test [1], the IC50 was 74 µM. For the same compound, the MIC came out at 147 µg/mL in test [2] and 37 µg/mL in test [3].
The compound `Cl.O=C(CCc1cn(CC2CCC(F)(F)CC2)c2ccc(Br)cc12)NC1CCNCC1` [Compound 286, 3-(5-bromo-1-((4,4-difluorocyclohexyl)methyl)-1H-indol-3-yl)-N-(piperidin-4-yl)propanamide hydrochloride salt] gave an IC50 in test [1] of 164 µM. Also, the minimum inhibitory concentration (MIC) in test [2] is 133 µg/mL; in test [3], 66 µg/mL.
On the same counts, the results for `Cc1cccc(C(CC(=O)NC2CCNCC2)c2cn(CC3CCC(F)(F)CC3)c3ccc(Br)cc23)c1.Cl` (stereo not shown) [Compound 287, 3-(5-bromo-1-((4,4-difluorocyclohexyl)methyl)-1H-indol-3-yl)-N-(piperidin-4-yl)-3-(m-tolyl)propanamide hydrochloride salt] are 15 µM, 78 µg/mL and 10 µg/mL.
For `FC1(F)CCC(Cn2cc(CCNC3CCNCC3)c3cc(Br)ccc32)CC1` [Compound 290, N-(2-(5-bromo-1-((4,4-difluorocyclohexyl)methyl)-1H-indol-3-yl)ethyl)piperidin-4-amine hydrochloride salt], the IC50 in test [1] was found to be 61 µM. For the same compound, the MIC in test [2] and in test [3] was 17 µg/mL in each case.
Take `Cc1cccc(C(CCN(C)C2CCNCC2)c2cn(CC3CCCCC3)c3ccc(Br)cc23)c1` (stereo not shown) [Compound 291, N-(3-(5-bromo-1-(cyclohexylmethyl)-1H-indol-3-yl)-3-(m-tolyl)propyl)-N-methylpiperidin-4-amine hydrochloride salt]: the IC50 in test [1] was 10 µM. For the same compound, the minimum inhibitory concentration (MIC) in test [2] was determined as 10 µg/mL; in test [3], 2 µg/mL.
Compound `Cc1cccc(C(CCNC2CCNCC2)c2cn(CC3CCOCC3)c3ccccc23)c1` (stereo not shown) [Compound 292, N-(3-(1-((tetrahydro-2H-pyran-4-yl)methyl)-1H-indol-3-yl)-3-(m-tolyl)propyl)piperidin-4-amine hydrochloride salt] had an IC50 in test [1] of 130 µM. The values for the MIC in test [2] and in test [3] were 66 µg/mL and 33 µg/mL, respectively.
On the same counts, the results for `FC1(F)CCC(Cn2cc(CCCNC3CCNCC3)c3cc(Br)ccc32)CC1` [Compound 295, N-(3-(5-bromo-1-((4,4-difluorocyclohexyl)methyl)-1H-indol-3-yl)propyl)piperidin-4-amine hydrochloride salt] are 50 µM, 17 µg/mL and 9 µg/mL.
On the same counts, the results for `Cc1cccc(C(CC(=O)N[C@H]2CC[C@H](N)CC2)c2cn(C(C)C3CCCCC3)c3ccccc23)c1.Cl` (stereo partly shown) [Compound 299, N-((1r,4r)-4-aminocyclohexyl)-3-(1-(1-cyclohexylethyl)-1H-indol-3-yl)-3-(m-tolyl)propanamide hydrochloride salt] are 32 µM, 134 µg/mL and 8 µg/mL.
As to `c1ccc2c(c1)c(CNCC1CCNCC1)cn2CC1CCCCC1` [Compound 300, 1-(1-(cyclohexylmethyl)-1H-indol-3-yl)-N-(piperidin-4-ylmethyl)methanamine hydrochloride salt], the MIC in test [2] and in test [4] (setting [5]) was 128 µg/mL throughout.
As to `CN(Cc1cn(CC2CCCCC2)c2ccccc12)CC1CCNCC1` [Compound 301, 1-(1-(cyclohexylmethyl)-1H-indol-3-yl)-N-methyl-N-(piperidin-4-ylmethyl)methanamine hydrochloride salt], the MIC in test [2] and in test [4] (setting [5]) was 128 µg/mL throughout.
For the compound `CCN(Cc1cn(CC2CCCCC2)c2ccccc12)CC1CCNCC1` [Compound 302, hydrochloride salt], the MIC in test [2] and in test [4] (setting [5]) was 128 µg/mL throughout.
As for `CCN(Cc1cn(CC2CCCCC2)c2ccccc12)CC1CCN(C)CC1` [Compound 303, N-((1-(cyclohexylmethyl)-1H-indol-3-yl)methyl)-N-((1-methylpiperidin-4-yl)methyl)ethanamine], the minimal inhibitory concentration (MIC) in test [2] came to 128 µg/mL (≈ 335 µM); in test [4] (ATCC29213, Table XIII, read-out: S. aureus ATCC 29213 MIC), 128 µg/mL (≈ 335 µM).
As for `COC(=O)c1ccc2c(c1)c(CNCC1CCNCC1)cn2CC1CCCCC1` [Compound 304, methyl 1-(cyclohexylmethyl)-3-(((piperidin-4-ylmethyl)amino)methyl)-1H-indole-5-carboxylate hydrochloride salt], the MIC in test [2] is above 128 µg/mL; in test [4] (setting [5]), 64 µg/mL.
In the same order, the values of `O=C(O)c1ccc2c(c1)c(CNCC1CCNCC1)cn2CC1CCCCC1` [Compound 305, 1-(cyclohexylmethyl)-3-(((piperidin-4-ylmethyl)amino)methyl)-1H-indole-5-carboxylic acid hydrochloride salt] are above 128 µg/mL and above 128 µg/mL.
Regarding `Cc1cccc(C(CCNC2CCC(N)CC2)c2cn(C3CCNCC3)c3ccccc23)c1` (stereo not shown) [Compound 306, N1-(3-(1-(piperidin-4-yl)-1H-indol-3-yl)-3-(m-tolyl)propyl)cyclohexane-1,4-diamine hydrochloride salt], the MIC in test [2] was above 128 µg/mL; in test [4] (setting [5]), 16 µg/mL.
In the same order, the values of `Cc1cccc(C(CCNC2CCC(N)CC2)c2cn(C3CCOCC3)c3ccccc23)c1` (stereo not shown) [Compound 307, N1-(3-(1-(tetrahydro-2H-pyran-4-yl)-1H-indol-3-yl)-3-(m-tolyl)propyl) cyclohexane-1,4-diamine hydrochloride salt] are 64 µg/mL and 64 µg/mL.
In the same order, the values of `Cc1cccc(C(CCNC2CCC(N)CC2)c2cn(CC3CCOCC3)c3ccc(CN)cc23)c1` (stereo not shown) [Compound 311, N1-(3-(5-(aminomethyl)-1-((tetrahydro-2H-pyran-4-yl)methyl)-1H-indol-3-yl)-3-(m-tolyl)propyl) cyclohexane-1,4-diamine hydrochloride salt] are above 128 µg/mL and 128 µg/mL.
`Cc1cccc(C(CCNC2CCC(N)CC2)c2cn(CC3CCOCC3)c3ccc(C#N)cc23)c1` (stereo not shown) [Compound 312, 3-(3-((4-aminocyclohexyl)amino)-1-(m-tolyl)propyl)-1-((tetrahydro-2H-pyran-4-yl)methyl)-1H-indole-5-carbonitrile hydrochloride salt]: the MIC in test [2] is 64 µg/mL; in test [4] (setting [5]), 32 µg/mL.
In the same order, the values of `Cc1cccc(C(CCNC2CCC(N)CC2)c2cn(CC3CCNCC3)c3ccccc23)c1` (stereo not shown) [Compound 313, N1-(3-(1-(piperidin-4-ylmethyl)-1H-indol-3-yl)-3-(m-tolyl)propyl)cyclohexane-1,4-diamine hydrochloride salt] are above 128 µg/mL and 16 µg/mL.
On the same counts, the results for `Cc1cccc(C(CCNCCCN)c2cn(CC3CCNCC3)c3ccccc23)c1` (stereo not shown) [Compound 314, N1-(3-(1-(piperidin-4-ylmethyl)-1H-indol-3-yl)-3-(m-tolyl)propyl)propane-1,3-diamine hydrochloride salt] are above 128 µg/mL and 16 µg/mL.
In the same order, the values of `Cc1cccc(C(CCNC2CCNCC2)c2cn(CC3CCNCC3)c3ccccc23)c1` (stereo not shown) [Compound 315, N-(3-(1-(piperidin-4-ylmethyl)-1H-indol-3-yl)-3-(m-tolyl)propyl) piperichn-4-amine hydrochloride salt] are above 128 µg/mL and 64 µg/mL.
Consider `Cc1cccc(C(CCNC2CCNCC2)c2cn(CC3CCOCC3)c3ccc(C#N)cc23)c1` (stereo not shown) [Compound 316, 3-(3-(piperidin-4-ylamino)-1-(m-tolyl)propyl)-1-((tetrahydro-2H-pyran-4-yl)methyl)-1H-indole-5-carbonitrile hydrochloride salt], for which the minimal inhibitory concentration (MIC) in test [2] and in test [4] (setting [5]) was 64 µg/mL throughout.
